Results taken from patent publication US20100160351A1, “PHARMACEUTICAL COMPOSITIONS AND METHODS FOR TREATING HYPERURICEMIA AND RELATED DISORDERS” (NUON THERAPEUTICS, INC., priority 2008, published 2010).

System: monosodium urate (MSU) crystal-induced air pouch inflammation
Assay: Air Pouch Model 3: MSU crystal air pouch, rodent model of gout
Format: in vivo, male Sprague-Dawley rats
Settings: 30 min before MSU; for Average Exudate Volume, Mean / Average Plasma Extravasation, OD620 nm, Mean / Total WBC in Sample, Mean / WBC in exudate, Mean: 4 h after MSU
Procedure: The objective of this study was to evaluate the anti-inflammatory potency of Tranilast. This evaluation was carried out in male Sprague-Dawley rats in a rodent model of gout. The animals were injected subcutaneously with 20 ml of sterile air, followed three days later by a supplemental injection with 20 ml of sterile air. Six days after the initial sterile air injection, the rats were injected intravenously with Evan's Blue and pretreated for thirty minutes with oral administration of 25 mg/kg, 50 mg/kg, 100 mg/kg, 200 mg/kg, or 300 mg/kg tranilast. After the pretreatment period, the rats were injected with 150 mg of monosodium urate (MSU) crystals (10 mg/ml) into the air pouch. Four hours later, the air pouch was injected with 5 ml heparinized saline and the entire contents of the air pouch removed, recording the total volume. The air pouch contents were evaluated for plasma extravasation and total white blood cell (WBC) count.
(§1) On day 0 the rats were anesthetized in a biological cabinet, the nape of the neck was cleansed with 70% isopropanol followed by iodine tincture (VEDCO). Twenty ml sterile (0.22 μm, Millipore, Cat. SLGSV255F) air was injected subcutaneously using a 23 G×2 inch needle fixed to a 20 ml syringe. The rats were returned to routine housing. No adverse reactions were observed.
as §1, with “day 3” for “day 0”, “μm, Fisher Scientific,” for “μm, Millipore,”, “Cat. 09-720-3)” for “Cat. SLGSV255F)”
On day 6 the rats were weighed (Mettler, Model PE3000, SN: F69474) and injected intravenously injected with 2 ml/kg Evans Blue. The animals were dosed orally with 0.5 ml/kg, 1 ml/kg, 2 ml/kg, 4 ml/kg tranilast, or 6 ml/kg tranilast or 6 ml/kg vehicle.
Thirty minutes after test material administration, the rats were anesthetized and six groups (2-7) were injected into the air pouch with 15 ml MSU using a 19 G×2 inch needle fitted to a 20 ml syringe. Group 1 was injected with 15 ml saline. The rats were returned to their cages, no adverse affects were observed.
Four hours after MSU/saline injection, the rats were anesthetized and 5 ml 10 U/ml heparinized saline was injected into the air pouch. The air pouch was gently massaged, the contents immediately removed using a 14 G×1 inch needle fitted to a 6 ml syringe, and the exudate volume recorded. An aliquot of the exudate was transferred to heparin-treated microtainer tubes (Becton Dickinson, Cat. 365958) for white blood cell (WBC) counting. The remainder of the exudate was centrifuged (Hermle Labrotechnik, Model Z200A, SN: 44060036), the supernatants removed and evaluated at OD620nm (Spectronic Unicam, Model 4000 1/4, SN: 3SGD003006) for plasma extravasation.

COc1ccc(/C=C/C(=O)Nc2ccccc2C(=O)O)cc1OC [Tranilast, 2-[[3-(3,4-dimethoxyphenyl)-1-oxo-2-propenyl]amino]benzoic acid]
Average Exudate Volume, Mean (25 mg/kg oral): 6.9 mL
Average Plasma Extravasation, OD620 nm, Mean (25 mg/kg oral): 1.181
Total WBC in Sample, Mean (25 mg/kg oral): 204170000
WBC in exudate, Mean (25 mg/kg oral): 31260000 cells/ml
Average Exudate Volume, Mean (50 mg/kg oral): 4.8 mL
Average Plasma Extravasation, OD620 nm, Mean (50 mg/kg oral): 1.071
Total WBC in Sample, Mean (50 mg/kg oral): 96948000
WBC in exudate, Mean (50 mg/kg oral): 18900000 cells/ml
Average Exudate Volume, Mean (100 mg/kg oral): 6.4 mL
Average Plasma Extravasation, OD620 nm, Mean (100 mg/kg oral): 1.276
Total WBC in Sample, Mean (100 mg/kg oral): 145408000
WBC in exudate, Mean (100 mg/kg oral): 27440000 cells/ml
Average Exudate Volume, Mean (200 mg/kg oral): 6.2 mL
Average Plasma Extravasation, OD620 nm, Mean (200 mg/kg oral): 1.033
Total WBC in Sample, Mean (200 mg/kg oral): 71692000
WBC in exudate, Mean (200 mg/kg oral): 12000000 cells/ml
Average Exudate Volume, Mean (300 mg/kg oral): 5.6 mL
Average Plasma Extravasation, OD620 nm, Mean (300 mg/kg oral): 0.611
Total WBC in Sample, Mean (300 mg/kg oral): 29232000
WBC in exudate, Mean (300 mg/kg oral): 5880000 cells/ml
inhibition of plasma extravasation (highest dose 300 mg/kg oral): 65%
inhibition of white blood cell infiltration (highest dose 300 mg/kg oral): 90%
effect on MSU-induced parameters (plasma extravasation, leukocyte infiltration) (oral 25-300 mg/kg): dose-dependent inhibition
